Literature values as cited in patent US9687554B2, “Finasteride and minoxidil polymeric nanoparticle its process of preparation, aqueous suspension containing the same, pharmaceutical composition, and its use” (Biolab Sanus Farmaceutica Ltda., priority 2012, dated 2017).

Tested on: men aged 18 to 41 years
Conditions: 1 mg daily, end of five years, 1553 men; placebo 75%

## CC(C)(C)NC(=O)[C@H]1CC[C@H]2[C@@H]3CC[C@H]4NC(=O)C=C[C@]4(C)[C@H]3CC[C@]12C [finasteride]
  Patients who developed baldness: 10%
